# Assay results: patent publication US6921539B2, “Antimicrobial therapeutic compositions and method of use” (priority 2002, dated 2005)
# Tests used:
# acute bronchio pneumonia [1] = assay: In Vivo Treatment of Pneumonia in Pig, control group (Example 13); settings: 8 i.m. injections of 8 ml every 12 hours
# Description: (§1) For example, a normalization of body temperature, the animal has begun to eat if not eating before treatment, the specific symptoms (e.g., diarrhea, coughing, etc.) have ceased.
# (§2) Treatments of procarvol by injection were through methods and techniques normally used by those in the agricultural field.
# (§3) The following examples are from a control group. These were similar animals and received standard conventional antibiotic treatment with accepted veterinary treatment protocols.
# A three and one half (3½) month old male Landras pig with an initial weight of 80 lbs (36 kg) was afflicted with acute bronchio pneumonia. Symptoms included coughing, fever, and loss of appetite. The pig had been positively diagnosed for pneumonia. The pig had not been treated previously. The therapy included eight (8) intramuscular injections of 8 ml of ampicillin every 12 hours. The temperature of the pig over the course of treatment is shown below.
# Escherichia Coli [2] = assay: In Vivo Treatment of Colibacilosis in Calf, control group (Example 12); settings: 5 i.m. injections of 5 ml and infusion of electrolytes every 12 hours
# Description: as §1, §2, §3
# A 15 day old male Holstein calf with an initial weight of 90 lbs (41 kg) was afflicted with Escerichia coli colibacilosis. Symptoms fever, diarrhea, dehydration, and loss of appetite. The calf had been positively diagnosed for Escherichia Coli. The calf had not been treated previously. The therapy included five (5) intramuscular injections of 5 ml ampicillin and also the infusion of electrolytes every 12 hours. The temperature of the calf over the course of treatment is shown below.
# Escherichia coli [3] = assay: In Vivo Treatment of Colibacilosis in Pig, control group (Example 8); settings: 2 i.m. injections of 2 ml every 12 hours
# Description: as §1, §2, §3
# A three (3) week old female Landras pig with an initial weight of 19 lbs (9 kg) was afflicted with Escherichia coli colibacilosis. Symptoms included diarrhea. The pig had been positively diagnosed for the bacterium Escherichia coli. The pig had been treated previously with ampicillin and colicisit. The therapy included two (2) intramuscular injections of 2 ml of ampicillin every 12 hours. The temperature of the pig over the course of treatment is shown below.
# Steptococcus uberis = assay: In Vivo Treatment of Mastitis in Cow, control group (Example 14); settings: 8 i.m. injections of 8 ml every 12 hours
# Description: as §1, §2, §3
# A four (4) year old […] Holstein cow with an initial weight of 1000 lbs (454 kg) was afflicted with mastitis. Symptoms included edema on the udder, and poor quality milk. The cow had been positively diagnosed for Steptococcus uberis. The cow had been previously treated with penicillin and streptomycin. The therapy included eight (8) intramuscular injections of 8 ml of ampicillin every 12 hours. The temperature of the cow over the course of treatment is shown below.
# [4] = cited from earlier work
# [5] = inactive metabolites after degradation by enzymes; cited from earlier work
# acute bronchio pneumonia [6] = assay: In Vivo Treatment of Pneumonia in Sheep, control group (Example 9); settings: 15 i.m. injections of 2 ml every 8 hours
# Description: as §1, §2, §3
# A 60 day old male sheep with an initial weight of 40 lbs (18 kg) was afflicted with acute bronchio pneumonia. Symptoms included fever and difficult breathing. The sheep had been positively diagnosed for […]. The sheep had been treated previously with penicillin. The therapy included 15 intramuscular injections of 2 ml Procaine penicillin G every 8 hours. The temperature of the sheep over the course of treatment is shown below.
smiles,measurement,setting,value
CC1(C)S[C@@H]2[C@H](NC(=O)[C@H](N)c3ccccc3)C(=O)N2[C@H]1C(=O)O [ampicillin],outcome of treatment,acute bronchio pneumonia [1],successful recovery
same,outcome of treatment,Escherichia Coli [2],died as a result of the infection
same,outcome of treatment,Escherichia coli [3],died as a result of the infection
same,outcome of treatment,Steptococcus uberis,successful recovery
"Cc1ccc(C(C)C)cc1O [carvacrol, 5-isopropyl-2-methylphenol]",solubility in lipids,[4],soluble in lipids
same,metabolites excreted in the urine,[5],approx. 90%
same,metabolites expired from the lungs in the form of carbon dioxide (CO2),[5],10%
CC1(C)S[C@@H]2[C@H](NC(=O)Cc3ccccc3)C(=O)N2[C@H]1C(=O)O.CCN(CC)CCOC(=O)c1ccc(N)cc1 [Procaine penicillin G],outcome of treatment,acute bronchio pneumonia [6],successful recovery
"Cc1ccc(C(C)C)c(O)c1 [thymol, 5-methyl-2[1-methylethyl]phenol]",metabolites excreted in the urine,[5],approx. 90%
same,metabolites expired from the lungs in the form of carbon dioxide (CO2),[5],10%
